Source: US20240368667A1, “RAPID, LABEL-FREE ANTIBIOTIC SUSCEPTIBILITY OF BACTERIA DIRECTLY FROM POSITIVE BLOOD OR BODILY FLUID/CULTURE” (priority 2021, published 2024)
Converted amounts (≈) assume the structure as drawn. Like-named read-outs stand apart in the source and are kept apart here.

What was measured:
[1] = tested on: E. coli; assay: Broth microdilution (BMD) MIC; format: cell-based, Escherichia coli; set-up: key to susceptibility classification, BMD: (S) sensitive; (I) intermediate; (R) resistant; details: for MIC: Escherichia coli
Description: (§1) Microbroth dilution for minimum inhibitory concentrations (MIC) with and without sucrose recovery. To isolate bacteria without sucrose, culture media from positive BacT/alert FA PLUS aerobic culture bottles (bioMérieux, Durham, NC) was serially diluted and plated onto LB agar (Lennox; Sigma-Aldrich, St. Louis, MO). Bacterial suspensions were prepared by resuspending colonies in CAMHB with incubation on a MaxQ 4000 incubator shaker (Thermo Fisher Scientific, Waltham, MA) at 37° C. and ˜225 rpm for 3 hours. Bacteria recovered via Method 2 were diluted 10-fold in CAMHB. Following incubation or sucrose recovery and dilution, bacterial suspensions were adjusted to ˜0.004 OD600 with CAMHB and a 50-μL aliquot distributed to each well of a 96-well plate containing CAMHB with and without clinically relevant antibiotics (2-fold dilution series). Gram-negative plates included: ceftazidime (3rd generation cephalosporin, RPI corp., Mount Prospect, IL), cefepime (4th generation cephalosporin, Chem-Impex Int'l, Wood Dale, IL), meropenem (carbapenem, Tokyo Chemical Industry, Tokyo, Japan), levofloxacin (quinolone, Alfa Aesar, Haverhill, MA), and tobramycin (aminoglycoside, MP Biomedicals LLC, Santa Ana, CA), while S. aureus plates contained: oxacillin (beta-lactam, Sigma-Aldrich, St. Louis, MO), vancomycin (glycopeptide, Santa Cruz Biotechnology, Dallas, TX), erythromycin (macrolide, Sigma-Aldrich, St. Louis, MO), clindamycin ([…]), and ciprofloxacin (fluoroquinolone, Sigma-Aldrich, St. Louis, MO). Antibiotic plates were incubated at 37° C. for 16-20 hours (gram-negative) or 35° C. for 24 hours (S. aureus), at which time, plates were removed from the incubator and visually inspected for bacterial growth. The MIC was set at the lowest antibiotic concentration at which no growth was detected.

[2] = tested on: P. aeruginosa 77; assay: Microbroth dilution MIC with and without sucrose recovery; format: cell-based, Pseudomonas aeruginosa; details: MIC given as multiple of S/I/R
Description: as §1
Influence of Sucrose on Bacterial MIC. To rule out the potential effect of sucrose exposure in bacterial antibiotic susceptibility, microbroth dilution studies were performed on bacteria recovered using standard practices (i.e. plating following positive blood culture) and through selective lysis coupled with centrifugation through the sucrose cushion (Method 2).

[3] = tested on: P. aeruginosa; assay: Broth microdilution (BMD) MIC; format: cell-based, Pseudomonas aeruginosa; set-up: key to susceptibility classification, BMD: (S) sensitive; (I) intermediate; (R) resistant; details: broth microdilution; for MIC: Pseudomonas aeruginosa, read-out: Minimum inhibitory concentration, BMD
Description: as §1

[4] = tested on: P. aeruginosa; assay: Direct flow cytometric AST (high-throughput flow cytometry, HTFC) of sucrose-recovered bacteria; format: cell-based, Pseudomonas aeruginosa; set-up: key to susceptibility classification, HTFC: (S) sensitive; (I) intermediate; (R) resistant; details: for MIC: Pseudomonas aeruginosa, read-out: Minimum inhibitory concentration, HTFC
Description: AST workflow using bacteria recovered directly from positive blood culture. A 1-mL aliquot of bacteria recovered using separation method 2 was diluted 10-fold in CAMHB, the OD600 adjusted to ˜0.01, and a 50 μL aliquot distributed into each well of a 96-well plate containing CAMHB with and without ceftazidime, tobramycin, and either meropenem (E. coli and P. aeruginosa) or oxacillin (S. aureus). Following Clinical and Laboratory Standards Institute (CLSI) guidelines^33, 2% sodium chloride (NaCl) was present in wells containing oxacillin to assist in the detection of methicillin-resistant S. aureus (MRSA). […] To account for observed differences in doubling and lag times, E. coli and P. aeruginosa were incubated for 4 hours at 37° C., while S. aureus was incubated for 9 hours at 35° C. After incubation, antibiotic plates were removed from the incubator and directly stored on ice (i.e. no post-processing) until high-throughput flow cytometry (BD LSRFortessa with HTS-system, BD, Franklin Lakes, NJ). No-antibiotic controls and antibiotic-treated samples were handled identically.
MIC Determination by flow cytometry. Because antibiotic effects are observed in both the position of scatter signatures (morphology changes) and count rates (growth inhibition), a modified count rate, accounting for scatter position, was used to evaluate susceptibility. Briefly, no-antibiotic control populations (triplicate) were pooled, binned, and a convex hull boundary set at 1-standard deviation above the background (not including bins with zero counts) was drawn. […] The overlap ratio, measuring changes in morphology, was then computed by dividing the number of sample events within the no-antibiotic control boundary by the total number of events within the sample. As an increase in count rate attributed to viable bacteria in antibiotic-treated samples is not scientifically meaningful, the fractional overlap was multiplied by the minimum of the control and sample count rates to generate a modified count rate accounting for antibiotic-induced morphological changes. All modified count rates were normalized by the average of the no-antibiotic controls. For automatic MIC determination, normalized count rates corresponding to n (index of predicted MIC), n+1, n+2 were iteratively fit to a linear function with a frameshift of n+1 between iterations (FIGS. 8 and 9). […] A threshold of −0.01 instead of zero was used to mitigate the influence of small fluctuations in normalized count rates on susceptibility determinations.

MIC ([1]; E. coli Blood Culture A, broth microdilution, read-out: Minimum inhibitory concentration, BMD): 1 µg/mL (≈ 2.14 µM) | MIC ([1]; E. coli Blood Culture B, broth microdilution, read-out: Minimum inhibitory concentration, BMD): 8 µg/mL (≈ 17.1 µM) | MIC ([1]; E. coli EC37, broth microdilution, read-out: Minimum inhibitory concentration, BMD): 0.25 µg/mL (≈ 0.535 µM) | MIC ([1]; E. coli EC-bank, broth microdilution, read-out: Minimum inhibitory concentration, BMD): 0.5 µg/mL (≈ 1.07 µM) | MIC ([1]; E. coli Mu76, broth microdilution, read-out: Minimum inhibitory concentration, BMD): 0.5 µg/mL (≈ 1.07 µM) | MIC ([1]; E. coli Mu218, broth microdilution, read-out: Minimum inhibitory concentration, BMD): 32 µg/mL (≈ 68.4 µM) | MIC ([1]; E. coli Mu890, broth microdilution, read-out: Minimum inhibitory concentration, BMD): 0.5 µg/mL (≈ 1.07 µM) | MIC ([1]; E. coli, strain not named (FIG. 14), read-out: MIC as determined by BMD): 0.25 µg/mL (≈ 0.535 µM) | minimum inhibitory concentration (MIC), Standard ([2]; P. aeruginosa 77 recovered by standard plating): ⅛S | minimum inhibitory concentration (MIC), Sucrose ([2]; P. aeruginosa 77 recovered through sucrose (Method 2)): ⅛S | MIC ([3]; P. aeruginosa Blood Culture B): 2 µg/mL (≈ 4.28 µM) | MIC ([3]; P. aeruginosa Blood Culture C): ≤ 0.125 µg/mL | MIC ([3]; P. aeruginosa PA7): > 64 µg/mL | MIC ([3]; P. aeruginosa PA46): 0.5 µg/mL (≈ 1.07 µM) | MIC ([3]; P. aeruginosa PA49): 0.5 µg/mL (≈ 1.07 µM) | MIC ([3]; P. aeruginosa PA81): 0.5 µg/mL (≈ 1.07 µM) | MIC ([3]; PAO1, P. aeruginosa PAO1): 0.5 µg/mL (≈ 1.07 µM)
SMILES: NC[C@H]1O[C@H](O[C@H]2[C@H](O)[C@@H](O[C@H]3O[C@H](CO)[C@@H](O)[C@H](N)[C@H]3O)[C@H](N)C[C@@H]2N)[C@H](N)C[C@@H]1O [Tobramycin, tobramycin]
susceptibility classification, BMD ([1]; E. coli Blood Culture A, broth microdilution): (S) | susceptibility classification, BMD ([1]; E. coli Blood Culture B, broth microdilution): (I) | susceptibility classification, BMD ([1]; E. coli EC37, broth microdilution): (S) | susceptibility classification, BMD ([1]; E. coli EC-bank, broth microdilution): (S) | susceptibility classification, BMD ([1]; E. coli Mu76, broth microdilution): (S) | susceptibility classification, BMD ([1]; E. coli Mu218, broth microdilution): (R) | susceptibility classification, BMD ([1]; E. coli Mu890, broth microdilution): (S) | susceptibility classification, BMD ([3]; P. aeruginosa Blood Culture B): (S) | susceptibility classification, BMD ([3]; P. aeruginosa Blood Culture C): (S) | susceptibility classification, BMD ([3]; P. aeruginosa PA7): (R) | susceptibility classification, BMD ([3]; P. aeruginosa PA46): (S) | susceptibility classification, BMD ([3]; P. aeruginosa PA49): (S) | susceptibility classification, BMD ([3]; P. aeruginosa PA81): (S) | susceptibility classification, BMD ([3]; P. aeruginosa PAO1): (S) | susceptibility classification, HTFC ([4]; P. aeruginosa Blood Culture B, antibiotic 4 hours (37° C.)): (S) | susceptibility classification, HTFC ([4]; P. aeruginosa Blood Culture C, antibiotic 4 hours (37° C.)): S | susceptibility classification, HTFC ([4]; P. aeruginosa PA7, antibiotic 4 hours (37° C.)): (R) | susceptibility classification, HTFC ([4]; P. aeruginosa PA46, antibiotic 4 hours (37° C.)): (S) | susceptibility classification, HTFC ([4]; P. aeruginosa PA49, antibiotic 4 hours (37° C.)): (S) | susceptibility classification, HTFC ([4]; P. aeruginosa PA81, antibiotic 4 hours (37° C.)): (S) | susceptibility classification, HTFC ([4]; P. aeruginosa PAO1, antibiotic 4 hours (37° C.)): (S) | MIC ([4]; 4 h, P. aeruginosa Blood Culture B, antibiotic 4 hours (37° C.)): 0.25 µg/mL (≈ 0.535 µM) | MIC ([4]; 4 h, P. aeruginosa PA7, antibiotic 4 hours (37° C.)): > 16 µg/mL | MIC ([4]; 4 h, P. aeruginosa PA46, antibiotic 4 hours (37° C.)): 1 µg/mL (≈ 2.14 µM) | MIC ([4]; 4 h, P. aeruginosa PA49, antibiotic 4 hours (37° C.)): 1 µg/mL (≈ 2.14 µM) | MIC ([4]; 4 h, P. aeruginosa PA81, antibiotic 4 hours (37° C.)): 1 µg/mL (≈ 2.14 µM) | MIC ([4]; PAO1, 4 h, P. aeruginosa PAO1, antibiotic 4 hours (37° C.)): 2 µg/mL (≈ 4.28 µM)
